Common to all, as to format: cell-based, human
For one experiment, the system named is HTT mRNA. The experiment in a line: RT-qPCR splicing assay, HTT canonical (CJ) and alternative (AJ) junction mRNA. The settings on record: for AC50: read-out: HTT AJ (AC50, increase in AJ mRNA). In a few lines: (§1)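 24 h compound exposure of A673 or K562 cells at 37 °C, 10 uM top final concentration, 3-fold steps, DMSO ≤0.25%. Splice-isoform levels determined by qPCR on cDNA from lysates, run at least in duplicate; values expressed as RQ normalized to GAPDH, GUSB or PPIA and DMSO.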
(In general: Real-time PCR tracks product formation cycle by cycle.)

Another experiment has as its system SMN2 mRNA. The experiment in a line: RT-qPCR splicing assay panel, SMN2 canonical junction (CJ) mRNA. A digest of the protocol: as §1
A further experiment relates to MYB mRNA. In words: RT-qPCR splicing assay, MYB canonical (CJ) and alternative (AJ) junction mRNA. The settings on record: for AC50: read-out: MYB AJ (AC50, increase in AJ mRNA). A digest of the protocol: as §1
Another experiment relates to Target C mRNA. The experiment in a line: RT-qPCR splicing assay panel, Target C canonical junction (CJ) mRNA. In a few lines:
as §1

The mark [1] stands for this setting: Homo sapiens, 24 h, Table 3B, A673 or K562 cells, 24 h treatment.
Where [2] appears, read: Homo sapiens, 24 h, Table 3B, A673 or K562 cells, 24 h treatment, read-out: HTT CJ (IC50, decrease in CJ mRNA).
Where [3] appears, read: Homo sapiens, Table 4B, gene panel, read-out: HTT (IC50, decrease in CJ mRNA levels).
The mark [4] stands for this setting: Homo sapiens, Table 4B, gene panel, read-out: SMN2 (IC50, decrease in CJ mRNA levels).
The mark [5] stands for this setting: Homo sapiens, 24 h, Table 3B, A673 or K562 cells, 24 h treatment, read-out: MYB CJ (IC50, decrease in CJ mRNA).
[6] abbreviates: Homo sapiens, Table 4B, gene panel, read-out: MYB (IC50, decrease in CJ mRNA levels).
Setting [7] is: Homo sapiens, Table 4B, gene panel, read-out: Target C (IC50, decrease in CJ mRNA levels).
The mark [8] stands for this setting: Homo sapiens, 24 h, Table 3A, A673 or K562 cells, 24 h treatment.
Setting [9] is: Homo sapiens, 24 h, Table 3A, A673 or K562 cells, 24 h treatment, read-out: HTT CJ (IC50, decrease in CJ mRNA).
Setting [10] is: Homo sapiens, canonical junction (CJ) mRNA, RT-qPCR panel, Table 4A, read-out: HTT, decrease in CJ mRNA levels, IC50.
[11] abbreviates: Homo sapiens, canonical junction (CJ) mRNA, RT-qPCR panel, Table 4A, read-out: SMN2, decrease in CJ mRNA levels, IC50.
[12] abbreviates: Homo sapiens, 24 h, Table 3A, A673 or K562 cells, 24 h treatment, read-out: MYB CJ (IC50, decrease in CJ mRNA).
The mark [13] stands for this setting: Homo sapiens, canonical junction (CJ) mRNA, RT-qPCR panel, Table 4A, read-out: MYB, decrease in CJ mRNA levels, IC50.
Setting [14] is: Homo sapiens, canonical junction (CJ) mRNA, RT-qPCR panel, Table 4A, read-out: Target C, decrease in CJ mRNA levels, IC50.
[15] abbreviates: Table 3A, A673 or K562 cells, 24 h treatment.

Where two headings read alike, the source gives them in different places.

With `Cc1nc2cc(O)c(-c3ccc(N4CCC(NC5CCC5)C4)nn3)cc2o1` (centres unmarked) [Compound 830], the AC50 in the experiment on HTT mRNA (setting [1]) and in the experiment with MYB mRNA (setting [1]) was above 10000 nM in each case. Further, the IC50 with HTT mRNA (setting [2]), in the experiment with HTT mRNA (setting [3]), in the experiment on SMN2 mRNA (setting [4]), in the experiment with MYB mRNA (setting [5]), with MYB mRNA (setting [6]) and with Target C mRNA (setting [7]) was above 10000 nM each time.

With `COc1cc(-c2ccc(-c3cc(C#N)c(OC4CC(C)(C)NC(C)(C)C4)nn3)c(O)c2)ncn1` [Compound 425], the AC50 in the experiment with HTT mRNA (setting [8]) and in the experiment with MYB mRNA (setting [8]) was 1000 to 10000 nM each time. The IC50 lay within 100 to 1000 nM in the experiment with HTT mRNA (setting [9]); 100 to 1000 nM in the experiment on HTT mRNA (setting [10]); 100 to 1000 nM with SMN2 mRNA (setting [11]); 1000 to 10000 nM in the experiment with MYB mRNA (setting [12]); 1000 to 10000 nM in the experiment with MYB mRNA (setting [13]); 1000 to 10000 nM in the experiment with Target C mRNA (setting [14]).

For `Cc1ncc(-c2cc(O)c(-c3ccc(N4CC[C@H](N(C)C5CCC5)C4)nn3)cc2F)s1` [Compound 267], the AC50 in the experiment on HTT mRNA (setting [8]) and with MYB mRNA (setting [8]) was below 100 nM each time. The IC50 with HTT mRNA (setting [9]), in the experiment with HTT mRNA (setting [10]), in the experiment on SMN2 mRNA (setting [11]), in the experiment on MYB mRNA (setting [12]), in the experiment with MYB mRNA (setting [13]) and in the experiment on Target C mRNA (setting [14]) was below 100 nM in each case.

Regarding `COc1cc(-c2cc(O)c(-c3ccc(N4CCC(N[C@H]5C[C@@H](F)C5)C4)nn3)cc2F)cnn1` (some centres unmarked) [Compound 273, 4-fluoro-5-(6-methoxypyridazin-4-yl)-2-[6-(3-{[(1s,3s)-3-fluorocyclobutyl]amino}pyrrolidin-1-yl)pyridazin-3-yl]phenol], the AC50 in the experiment on HTT mRNA (setting [8]) and in the experiment on MYB mRNA (setting [8]) was 100 to 1000 nM throughout. Also, the IC50 was 100 to 1000 nM with HTT mRNA (setting [9]); 100 to 1000 nM in the experiment on HTT mRNA (setting [10]); below 100 nM with SMN2 mRNA (setting [11]); 100 to 1000 nM in the experiment with MYB mRNA (setting [12]); 100 to 1000 nM with MYB mRNA (setting [13]); 100 to 1000 nM in the experiment on Target C mRNA (setting [14]).

As for `Oc1cc(-c2cn[nH]c2)ccc1-c1ccc(N2CCC(NC3CC3)C2)nn1` (centres unmarked) [Compound 100, 2-(6-(3-(cyclopropylamino)pyrrolidin-1-yl)pyridazin-3-yl)-5-(1H-pyrazol-4-yl)phenol], the AC50 in the experiment with HTT mRNA (setting [15]) is below 100 nM; in the experiment with MYB mRNA (setting [15]), 100 to 1000 nM. Besides, the IC50 is below 100 nM in the experiment on HTT mRNA (Table 3A, A673 or K562 cells, 24 h treatment, read-out: HTT CJ (IC50, decrease in CJ mRNA)); below 100 nM with HTT mRNA (canonical junction (CJ) mRNA, RT-qPCR panel, Table 4A, read-out: HTT, decrease in CJ mRNA levels, IC50); below 100 nM in the experiment on SMN2 mRNA (canonical junction (CJ) mRNA, RT-qPCR panel, Table 4A, read-out: SMN2, decrease in CJ mRNA levels, IC50); 100 to 1000 nM in the experiment with MYB mRNA (Table 3A, A673 or K562 cells, 24 h treatment, read-out: MYB CJ (IC50, decrease in CJ mRNA)); 100 to 1000 nM in the experiment with MYB mRNA (canonical junction (CJ) mRNA, RT-qPCR panel, Table 4A, read-out: MYB, decrease in CJ mRNA levels, IC50); below 100 nM in the experiment with Target C mRNA (canonical junction (CJ) mRNA, RT-qPCR panel, Table 4A, read-out: Target C, decrease in CJ mRNA levels, IC50).

`CC(C)(C)N[C@H]1CCN(c2ccc(-c3ccc(-c4cn[nH]c4)cc3O)nn2)C1` [Compound 101, 2-{6-[(3S)-3-(tert-butylamino)pyrrolidin-1-yl]pyridazin-3-yl}-5-(1H-pyrazol-4-yl)phenol]: the AC50 in the experiment on HTT mRNA (setting [8]) and in the experiment with MYB mRNA (setting [8]) was below 100 nM throughout. The IC50 in the experiment with HTT mRNA (setting [9]), in the experiment with HTT mRNA (setting [10]), with SMN2 mRNA (setting [11]), in the experiment with MYB mRNA (setting [12]), in the experiment with MYB mRNA (setting [13]) and with Target C mRNA (setting [14]) was below 100 nM in each case.

Turning to `Cc1nc2cc(O)c(-c3cnc(N4CC[C@@H](NC(C)(C)C)C4)nn3)cc2o1` [Compound 808], the half-maximal activity concentration (AC50) in the experiment with HTT mRNA (setting [1]) and in the experiment with MYB mRNA (setting [1]) was above 10000 nM each time. In addition, the IC50 in the experiment with HTT mRNA (setting [2]) was 1000 to 10000 nM; with HTT mRNA (setting [3]) it was 1000 to 10000 nM; in the experiment with SMN2 mRNA (setting [4]), 1000 to 10000 nM; with MYB mRNA (setting [5]), above 10000 nM; in the experiment on MYB mRNA (setting [6]) it was above 10000 nM; in the experiment with Target C mRNA (setting [7]), above 10000 nM.

Usually AC50 stands for the concentration giving half of the maximal activity seen. Broadly, the IC50 is the concentration at which inhibition is half-maximal.

These data come from patent publication US20250333397A1 (REMIX THERAPEUTICS INC., priority 2021, published 2025).
